From patent US8765710B2, “2′,4′-substituted nucleosides as antiviral agents” (Gilead Pharmasset LLC, priority 2007, dated 2014)

What was measured:
[1] = test system: HBV in HepG2-AD38 cell line; assay: HBV AD38 assay (HBV DNA in supernatant by real time PCR); assay type: cell-based; conditions: Hepatitis B virus; read-out: HBV Inhibition EC90
Procedure: Biological Assays HBV AD38 Assay
The materials required for the assay comprise the following:
The HepG2-AD38 cell line.
The culture medium for HepG2-AD38 comprises DMEM-F/12, 10% fetal bovine serum, 100 IU/ml/100 ug/ml of Penicillin/streptomycin, 50 μg/ml kanamycin, 0.3 μg/ml tetracycline, and 200 μg/ml G418.
The assay medium for HepG2-AD38 comprises DMEM-F/12, 10% fetal bovine serum, 1001 U/ml/100 μg/ml of penicillin/streptomycin, 50 μg/ml kanamycin, and 200 μg/ml G418 Further materials comprise Phosphate buffered saline (PBS), Biocoated 96 well plates, DNeasy 96 tissue kit (Qiagen), QIAvac 96 vacuum manifold, Micro amp optical 96 well reaction plates (Applied Biosystems), Micro amp optical caps (Applied Biosystems), Tagman Universal PCR Master Mix (Applied Biosystems), and a 7700 Sequence detector (Applied Biosystems),
The primers and probes for HBV DNA comprise the 1125 nM forward primer (GGACCCCTGCTCGTGTTACA) (SEQ ID NO:1), the 1125 nM reverse primer (GAGAGAAGTCCACCACGAGTCTAGA) (SEQ ID NO:2), and the 250 nM probe (FAM-TGTTGACAAGAATCCTCACAATACCAC) (SEQ ID NO:3).
Seed 5×10^4 cells/well in 200 μl of culture medium in a 96 well biocoated plate and incubate the plate at 37° C. with 5% CO2. […]

[2] = MTS cytotoxicity assay, CEM; assay type: cell-based; conditions: human, CEM (lymphoid) cells
Procedure: (§1) Human cells lines Huh 7 and HepG2 (liver), BxPC3 (pancreatic) and CEM (lymphoid) are used for the MTS assays in 96 wells plates. Drugs are freshly diluted in media at 2×100 μM, 50 μM, 25 μM, 10 μM, 5 μM, 1 μM and 50 μl is dispensed in triplicate in the plates. The wells at the periphery of the plate contain 100 ul of media only and will be the blank controls. A replicate control with no drug is always performed in each plate. 50 μl of cells are added to the plate, at 2000 cells per well for Huh 7, HepG2 and PxPC3, and 5000 cells per well for CEM cells. No cells are added at the periphery of the plate. The media used for Huh 7, HepG2 and BxPC3 cells is DMEM with 10% FBS, and Penicillin/streptomycin, and RPMI with 10% FBS, and Penicillin/streptomycin for CEM cells. After 8 days of incubation at 37° C., 20 μl of MTS dye from the CellTiter 96 Aqueous One Solution Cell Proliferation Assay kit from Promega is added to each well and the plate incubated for 2 h at 37° C. The absorbance is then read at 490 nm using the microplate reader E1800 from Biotek. The signal is calculated by subtracting the absorbance measured in the blank controls. The CC50 (Cytotoxic Concentration) value is then determined by comparing the signal obtained with the no-drug cell control with the treated cells and calculating the concentration of drug necessary to inhibit 50% of the signal in the wells treated with drugs.

[3] = test system: HIV (NL43 wild type virus) in P4 CCR5-luc cells; assay: HIV titration to determine EC50 on P4 CCR5-luc cells; assay type: cell-based; conditions: Human immunodeficiency virus 1, NL43, read-out: HIV Inhibition P4 Cells EC50
Procedure: HIV-Titration of PSI Activity to Determine EC50 on P4 CCR-luc Cells.
P4 CCR5-luc cells are plated at 10,000 cells per well (100 μl) in 96 well Opaque Assay plates and incubated overnight at 37° C. The next day, the media is aspirated from the plates and replaced by 100 ul of compound freshly diluted into appropriate media (DMEM, 10% FBS, G418 500 μg/ml, penicillin/streptomycin) at 2× final concentrations in 5 fold dilutions, usually from 2×100 μM to 2×0.032 uM, in triplicate, for 4 hours at 37° C. The cells are then infected with 100 ul NL43 wild type or mutant virus, at 5 ng to 20 ng of p24 per well, in the presence of 2×20 ug/ml of DEAE-Dextran, for 40-42 hours. Non infected and infected no drug controls are always present in 12plicate on each plate. An AZT control is tested in parallel for each experiment. After infection, the beta-gal is quantitated in the cell lysate using the Galacto-Star kit from Applied Biosystems and the luminescence measured using a Victor apparatus from Perkin-Elmer. The EC50 (Effective Concentration) is calculated using a Microsoft® Excel® spreadsheet that calculates the concentration necessary to inhibit the 50% of the infection. The assay is performed in at least 2 independent experiments.

[4] = MTS cytotoxicity assay, HepG2; assay type: cell-based; conditions: human, HepG2 (liver) cells
Procedure: as §1

[5] = test system: HCV replicon RNA in Huh 7 cells (clone A cells); assay: HCV replicon assay, clone A cells (replicon RNA by RT-PCR); assay type: cell-based
Procedure: (§2) HCV replicon RNA-containing Huh 7 cells (clone A cells; Apath, LLC, St. Louis, Mo.) were kept at exponential growth in Dulbecco's modified Eagle's medium (high glucose) containing 10% fetal bovine serum, 4 mM L-glutamine and 1 mM sodium pyruvate, 1× nonessential amino acids, and G418 (1,000iug/m1). Antiviral assays were performed in the same medium without G418. Cells were seeded in a 96-well plate at 1,500 cells per well, and test compounds were added immediately after seeding. Incubation time 4 days. At the end of the incubation step, total cellular RNA was isolated (RNeasy 96 kit; Qiagen). Replicon RNA and an internal control (TaqMan rRNA control reagents; Applied Biosystems) were amplified in a single-step multiplex RT-PCR protocol as recommended by the manufacturer. The HCV primers and probe were designed with Primer Express software (Applied Biosystems) and covered highly conserved 5′-untranslated region (UTR) sequences (sense primer: • 5′-AGCCATGGCGTTAGTA(T)GAGTGT-3′ (SEQ ID NO:4); antisense primer: • 5′-TTCCGCAGACCACTATGG-3′ (SEQ ID NO:5); and probe: • 5′-FAM-[…]-TAMRA-3′ (SEQ ID NO:6)).
(§3) To express the antiviral effectiveness of a compound, the threshold RT-PCR cycle of the test compound was subtracted from the average threshold RT-PCR cycle of the no-drug control (ΔCtHCV). […]

[6] = Cytotoxicity in PBMC; assay type: cell-based
[7] = test system: HCV S282T cells; assay: HCV inhibition in S282T cells; assay type: cell-based; conditions: Hepatitis C virus, read-out: HCV Inhibition S282T Cells EC90
[8] = test system: HIV (NL43 virus) in P4CCR5luc cells; assay: HIV screen: primary screening at 50 μM in P4CCR5luc cells (beta-gal readout); assay type: cell-based; conditions: Human immunodeficiency virus 1, NL43, P4 cells
Procedure: HIV screen: Primary Screening of PSI compounds are tested for antiviral HIV activity at 50 μM. The cells used are P4CCR5luc cells; they are human HIV indicator cells, which are derived from Hela cells, express CD4, CXCR4, CCR5, luciferase, and a beta-gal gene under the control of HIV-1 LTR. P4CCR5 luc cells are cultivated in DMEM, 10% FBS, Penicillin, Streptomycin, and G418 at 500 μg/ml. 100 μl of P4 CCR5-luc cells are plated at 10,000 cells per well in 96 well Opaque Assay plates and incubated overnight at 37° C. The next day, the media is aspirated from the plates and replaced by 100 μl of compound freshly diluted into media at 2×50 uM, in triplicate, for 4 hours at 37° C. The cells are then infected with 100 ul NL43 virus at 5 ng of p24 per well, in the presence of 2×20 ug/ml of DEAE-Dextran for 40-42 hours. Non infected, infected no drug and AZT controls are always present in triplicate on each plate. After infection the beta-gal is quantitated using the Galacto-Star kit from Applied Biosystems using the manufacturer instructions and the luminescence measured using a Victor apparatus from Perkin-Elmer. Results are represented as percentage inhibition compare to untreated cells. The assays are performed in 2 to 3 independent experiments.

[9] = MTS cytotoxicity assay, BxPC3; assay type: cell-based; conditions: human, BxPC3 (pancreatic) cells
Procedure: as §1

[10] = MTS cytotoxicity assay, Huh 7; assay type: cell-based; conditions: human, Huh 7 (liver) cells
Procedure: as §1

[11] = test system: rRNA of Huh 7 clone A cells; assay: HCV replicon assay, rRNA internal control (cytotoxicity, ΔCt rRNA); assay type: cell-based, human
Procedure: as §2, §3

[12] = Toxicity, luciferase assay in P4 CCR5-luc cells; assay type: cell-based; conditions: human, read-out: Cytotoxicity CC50, P4 Cells
Procedure: P4 CCR5-luc cells are plated at 10,000 cells per well (100 ul) in 96 well Opaque Assay plates and incubated overnight at 37° C. The next day, the media is aspirated from the plates and replaced by 200 ul of compound freshly diluted into media in 5 fold dilutions from 100 μM to 0.0062 μM. After 4 days of incubation at 37° C., the luciferase activity is measured in the cell lysate using the Bright Glow kit from Promega and the luminescence measured using a Victor apparatus from Perkin-Elmer.

In the case of `C[C@@H]1[C@H](n2ccc(N)nc2=O)O[C@@](CO)(N=[N+]=[N-])[C@H]1O`, the EC90 [1] is reported as 1.62 µM, the CC50 at 8 days [2] is reported as 400 µM and the EC50 [3] is reported as 0.18 µM. The CC50 at 8 days [4] was 300 µM, the “Screen HCV Clone A Cells −log10 at 50 μM (HCV)” value ([5]; 50 μM, clone A cells, HCV RNA) was −1.4 log10 and the EC90 ([5]; Hepatitis C virus, Huh-7, read-out: HCV Inhibition Clone A cells EC90) was 7.85 µM. For the same molecule, the CC50 [6] was over 100 µM, the EC90 [7] was 73.1 µM and the inhibition at 50 µM [8] was 100%. For the same molecule, the CC50 at 8 days [9] was 400 µM, the CC50 at 8 days [10] was over 100 µM and the “Screen HCV Clone A Cells −log10 at 50 μM (Rbz)” value [11] was −0.59 log10. The CC50 at 4 days [12] was over 100 µM.
